Test results reported in ChEMBL document CHEMBL1201862, “PubChem BioAssay data set” (2004).
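Method: 48-hour compound exposure of cells in 96-well plates, five concentrations, linear interpolation of endpoints. GI50 marks 50% less growth.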 Active and inactive are the calls of the source. Rule as the data show it: active = GI50 up to about 1.1 µM and inactive = higher. Where a SMILES comes first, the peptide text is derived from it. The star is where a group is joined. Cbz = O=C(OCc1ccccc1)*; NHNH2 = NN*

What was measured:
Assay in all cases: inhibition of tumour cell growth, NCI panel, 48 h
DMS-114 = tested on: DMS-114
HOP-18 = tested on: HOP-18
KM-20L2 = tested on: KM-20L2
SNB-78 = tested on: SNB-78
DLD-1 = tested on: DLD-1
XF498 = tested on: XF498
BT-549 = tested on: BT-549
Hs-578T = tested on: Hs-578T

Measured: GI50

Cn1cc(-c2ccc3c4ccccc4n(C)c3c2)c2ccccc21
inactive: DMS-114 > 100 µM | HOP-18 > 100 µM | KM-20L2 > 100 µM | SNB-78 > 100 µM

COc1ccc(/C=N/C23CC4CC(CC(C4)C2)C3)cc1
inactive: DMS-114 > 100 µM | KM-20L2 > 100 µM | SNB-78 > 100 µM

COC(OC)c1cccc2c1C(=O)CCC1(O)c3ccccc3C1C2 (stereo not given)
inactive: DLD-1 > 100 µM | DMS-114 39.1 µM | HOP-18 91.6 µM | SNB-78 > 100 µM | XF498 > 100 µM

COc1ccc2c(=O)c(C)c(-c3ccccc3)oc2c1CN(C)C [DIMEFLINE]
inactive: DLD-1 > 100 µM | HOP-18 > 100 µM | KM-20L2 97.7 µM | SNB-78 > 100 µM | XF498 69.3 µM

CCOC(=O)NN1C(=O)C(=P(c2ccccc2)(c2ccccc2)c2ccccc2)C(C(=O)OC)=C1C
inactive: DLD-1 > 100 µM | DMS-114 > 100 µM | HOP-18 > 100 µM | KM-20L2 > 100 µM | SNB-78 > 100 µM | XF498 > 100 µM

OC1(c2ccc(Cl)cc2)c2c(ccc3c2OCO3)C2=NCCN21 (stereo not given)
inactive: BT-549 32.3 µM | Hs-578T 20.8 µM

CCOC(=O)c1c(-c2ccc(Br)cc2)ccn1C
inactive: BT-549 > 10 µM | Hs-578T > 10 µM

[N-]=[N+]=NC(c1cn(C2CC(O)C(CO)O2)c(=O)[nH]c1=O)C(Br)I (stereo not given)
inactive: DLD-1 > 100 µM | DMS-114 > 100 µM | KM-20L2 > 100 µM | SNB-78 > 100 µM

C[C@]12CCC3c4ccc(OC(=O)c5ccccc5)cc4CC[C@H]3C1CC[C@@H]2OC(=O)C12OC1CCC2=O (stereo not given in full)
inactive: DLD-1 2.47 µM | DMS-114 2.6 µM | HOP-18 5.71 µM | KM-20L2 5.89 µM | SNB-78 6.34 µM | XF498 5.82 µM

CCCCn1c(C)c(C(=O)CC)c(C(=O)NCCN2CCN(c3ccccc3Cl)CC2)c1C
inactive: BT-549 16 µM | Hs-578T 23.5 µM

CCCCCCCCCCOC(=O)c1cc[n+](C)cc1
inactive: DLD-1 18.5 µM | DMS-114 18 µM | HOP-18 42.7 µM | SNB-78 17.9 µM | XF498 17.5 µM

CC(C)C(=O)OCC1OC(n2c(Br)nc3c(=O)[nH]c(N)nc32)C(OC(=O)C(C)C)C1OC(=O)C(C)C (stereo not given)
inactive: BT-549 35.5 µM | Hs-578T 29 µM

CC(=O)C1(C(=O)C(=[N+]=[N-])S(=O)(=O)c2ccccc2)CC1
inactive: BT-549 > 100 µM | Hs-578T > 100 µM

CCCCC#COS(=O)(=O)c1ccc(C)cc1
inactive: DLD-1 57.9 µM | DMS-114 44.1 µM | KM-20L2 75.9 µM | SNB-78 > 100 µM

O=C(OCCN=c1c2ccccc2ccc2ccccc12)c1cc([N+](=O)[O-])cc([N+](=O)[O-])c1
inactive: BT-549 25.8 µM | Hs-578T > 100 µM

O=C(c1ccco1)C1CC(c2ccc3ccccc3c2O)=NN1 (stereo not given)
inactive: BT-549 > 100 µM | Hs-578T > 100 µM

O=C(c1ccccc1)c1c(CC(O)c2ccccn2)n(C(=O)c2ccccc2)c2ccccc12 (stereo not given)
inactive: DLD-1 26.9 µM | DMS-114 22 µM | KM-20L2 18.5 µM | XF498 20.4 µM

O=S1(=O)OCCOS(=O)(=O)C1C1c2ccccc2-c2ccccc21
inactive: BT-549 48.8 µM | Hs-578T 44.9 µM

CC1CC(=O)C2CC(CO)=CCCC2C1(C)CC/C(=C/CO)CO (stereo not given)
inactive: DLD-1 > 100 µM | DMS-114 > 100 µM | HOP-18 > 100 µM | SNB-78 > 100 µM

C=C1C[C@]23C[C@@]1(O)CC[C@H]2[C@@]12C=C[C@H](O)[C@@](C)(C(=O)O1)[C@H]2[C@@H]3C(=O)O [GIBBERELLIN A3]
inactive: DLD-1 > 100 µM | DMS-114 > 100 µM | KM-20L2 > 100 µM | SNB-78 > 100 µM | XF498 > 100 µM

CCOC(=O)c1cc(C(=O)c2ccccc2)n2nc(-c3ccc(Cl)cc3)ccc12
inactive: BT-549 18.1 µM | Hs-578T 17.5 µM

CCOC(=O)CCC(NC(=O)OCc1ccccc1)C(=O)NC(CCC(=O)OCC)C(=O)NN (stereo not given) (Cbz-Glu(OEt)-Glu(OEt)-NHNH2; configuration not given here)
inactive: BT-549 > 100 µM | Hs-578T > 100 µM

O=c1c2cc(-c3ccccc3)sc2nc2n1N=C(c1ccccc1)CS2
inactive: BT-549 18.4 µM | Hs-578T 8.63 µM

C=CCOC1=C(OC(C)=O)C(C2COC(C)(C)O2)OC1=O (stereo not given)
inactive: BT-549 27.4 µM | Hs-578T 33.4 µM

CSc1nc(-c2ccc(C)cc2)c(C#N)c(=O)[nH]1
inactive: BT-549 > 100 µM | Hs-578T > 100 µM

CC(C)(C)OC(=O)NCC(=O)N(CCc1ccc(Cl)c(Cl)c1)CCN1CCCC1
inactive: BT-549 20 µM | Hs-578T 18.8 µM

CC(C)CNC(=O)Cn1c2c(c3ccccc31)CCCC2
inactive: BT-549 > 100 µM | Hs-578T 50.8 µM

C=C(C)C(O)C(O)C[C@@H](C)C1CC[C@]23C[C@]12CCC1[C@@]2(C)CCC(OC(C)=O)C(C)(C)C2CC(OC2OC(CO)C(O)C(O)C2O)[C@]13C (stereo not given in full)
inactive: BT-549 14.5 µM | Hs-578T 21 µM

COC(=O)C[C@H](COCc1ccccc1)NC(=O)C[C@H](COCc1ccccc1)NC(=O)OC(C)(C)C
inactive: BT-549 20.7 µM | Hs-578T 26.4 µM

O=C(N/C(=C\c1ccccc1)C1Nc2ccccc2C(=O)O1)c1ccccc1 (stereo not given)
inactive: BT-549 21.5 µM | Hs-578T 30.3 µM

NS(=O)(=O)c1cc(C(=O)O)c(Cl)c([N+](=O)[O-])c1Cl
inactive: BT-549 > 100 µM | Hs-578T > 100 µM

CCOC1=NC(C(F)(F)F)(C(F)(F)F)N=C(/N=C(/N)N(C)C(C(C)C)P(=O)(OC(C)C)OC(C)C)O1 (stereo not given)
inactive: BT-549 40.6 µM | Hs-578T 61.4 µM

COC(=O)N(C(=O)OC)C(C(=O)O)C(C)C (stereo not given)
inactive: DLD-1 > 100 µM | DMS-114 > 100 µM | HOP-18 > 100 µM | KM-20L2 > 100 µM | SNB-78 > 100 µM
